Results reported in patent publication US7550613B2, “Compounds” (Pronova Biopharma Norge AS, priority 2005, dated 2009).

How the values were obtained:
[1] = Analysis of intracellular free fatty acids in liver tissue (RP-HPLC MS/MS); assay type: in vivo, adipose prone mice of the C57BL/6J strain; conditions: FIG. 4; 1.5% of total fat content
Procedure: In the first block of experiments (see FIG. 2) liver tissue from animals fed PRB-1,2,5, and 7 was analysed with respect to free unesterified fatty acids. The animals were recruited from the fifth block of experiments (pharmacodynamic effects of DHA derivatives in an animal model of metabolic syndrome). The animals had been given DHA ([…] of fat content of the diet) or the DHA-derivatives (1.5% of the fat content in their diet) for 8 weeks and were supposed to be in a steady-state situation with stable levels of DHA and the DHA-derivatives intracellularily. Liver tissue was chosen due to the fact that the metabolisation rate is very high in liver.
The liver samples were homogenized in cold PBS buffer, and extracted immediately with chloroform:methanol (2:1) containing 0.2 mM butylated hydroxytoluene (BHT) using cis-10-heptadecenoic acid as internal standard. […] Total protein content was measured using Bio-Rad method after homogenization.
Agilent 1100 system was used for reverse phase column (Supelco Ascentis C18 column, 25 cm×4.6 mm, i.d. 5 μm) separation of DHA and its PRB derivatives within 22 min. […] The column elute was identified and quantified in the negative electrospray ionisation applying multiple reaction monitoring mode by triple tandem quadrapole mass/mass (ABI Qtrap-4000). […] The quadratic regression standard curve was used for quantification after internal standard calibration. […]

[2] = Effect of DHA derivatives on established metabolic syndrome and insulin resistance (Example 5b); assay type: in vivo, C57BL/6 mice
Procedure: In another experiment, PRB-2, PRB-5, and PRB-7 were tested in the same breed of animals. In this experiment, animals were initially fed high fat diet (the same as in the previous experiment 5a) for 8 weeks developing insulin resistance and the metabolic syndrome, and then given the PRBs. […] After a period of another two weeks the animals were given 1.5% of PRB-2, 5% and 1.5% of PRB-5, and 1.5% and 0.5% of PRB-7.

[3] = Effect of DHA derivatives in adipose prone mice during 4 months of dietary interventions (Example 5a); assay type: in vivo, male C57BL/6 mice; conditions: for Body wt. gain / Body weight / NEFA / Insulin / TAGs: 4 months; for Body weight: * = significant vs cHF (P<0.05); for AUCglucose: intraperitoneal glucose tolerance test; for NEFA: non-esterified fatty acids; for Insulin: plasma; for TAGs: serum triglycerides
Procedure: All experiments were performed on male C57BL/6 mice, either a substrain C57BL/N (supplier: Charles River, Germany, n=160, experiments A-C, see below), or a substrain C57BL/6J (supplier: the Jackson laboratory, Bar Harbor, Me., USA, n=32, experiment D). Total numbers of animals used were higher (n=170 and 36, respectively), because of culling. In the latter case, animals were bred for several generations (<20) at the Institute of Physiology. At the beginning of the treatment, animals were 14-week-old and their body weight range was 23.6-27.1 g. One week before the study start, animals were sorted according to their body weight and assigned to subgroups (n=8) of similar mean body weight. This method allowed for culling of about 5-10% of animals showing the lowest and highest body weight, respectively. The animals eliminated from the study at this stage were sacrificed by cervical dislocation. Complete health check of mice was performed by the supplier Charles River and at the start of study serological tests were performed by ANLAB (Prague, Czech Republic). In addition, regular health checks were performed in the animal house in 3-mo-intervals using sentinel mice and serological examinations (ANLAB). In all the tests, the animals were free of specific pathogens.
• (i) Chow diet (ssniff R/M-H from SSNIFF Spezialdieten Gmbh, Soest, Germany; see also http://ssniff.de) with protein, fat and carbohydrate forming 33, 9, and 58 energy %, respectively • (ii) High-fat diet prepared in the laboratory (cHF diet) with protein, fat and carbohydrate forming 15, 59, and 26 energy %, respectively, and well characterized fatty acid composition (with most of the lipids coming from corn oil; see Ruzickova 2004) • (iii) cHF diets in which 0.15, 0.5, and 1.5% of fat (specifically the corn oil constituent) was replaced by various PRB-compounds, namely PRB1, PRB2, PRB5, PRB7, and PRB8, or by DHA. All these compounds were in the form of ethyl esters, provided by Pronova Biocare a.s. in sealed containers. Chemical composition of the PRB-compounds was unknown to the laboratory performing the experiments (Institute of Physiology, Academy of Sciences Prague, Czech Republic).
The study was based on 4 individual experiments. In each of the experiments, different PRB-compounds (or DHA, respectively) admixed to cHF diet in three different concentrations (0.15, 0.5, and 1.5% of the fat content) were tested. In each experiment, a subgroup of plain cHF diet-fed mice was included and served as a control. Mice were caged in groups of 4 and fed standard chow diet until 3 mo of age, when animals (n=8-13) were randomly assigned to the different test diets. After 2 mo on this new diet (at 5 mo of age), animals were fasted overnight and in the morning, intraperitoneal Glucose Tolerance Test (GTT) was performed. Animals were sacrificed after 4 months on the experimental diets, at 7 mo of age, and the end-point analysis were performed.

intracellular concentration of DHA in liver tissue from animals given the PRB [1]: significantly higher level
Structure (SMILES): CC/C=C\C/C=C\C/C=C\C/C=C\C/C=C\C/C=C\CC(SCC)C(=O)OCC (stereo not drawn) [PRB-7, α-tioethyl docosahexaenoic acid ethyl ester]
plasma insulin ([2]; FIG. 15): some effects on the insulin concentration
AUC blood glucose compared to the baseline values ([2]; FIG. 16, 1.5% of PRB-2): some effect but not to the same extent
Fasted glucose ([3]; 0.15% concentration): 141 ± 9 mg/dL
Fasted glucose ([3]; 0.5% concentration): 152 ± 6 mg/dL
Fasted glucose ([3]; 1.5% concentration): 120 ± 9 mg/dL
Body wt. gain ([3]; 0.15% concentration): 23.2 ± 0.7 grams
Body weight ([3]; 0.15% concentration): 47.4 ± 0.8* grams
Body wt. gain ([3]; 0.5% concentration): 24.8 ± 0.8 grams
Body weight ([3]; 0.5% concentration): 48.8 ± 0.9 grams
Body wt. gain ([3]; 1.5% concentration): 21.7 ± 0.9 grams
Body weight ([3]; 1.5% concentration in cHF diet): 45.9 ± 1.1* grams
AUCglucose ([3]; 0.15% concentration): 1425 ± 97 mM × 180 min
AUCglucose ([3]; 0.5% concentration): 1674 ± 203 mM × 180 min
AUCglucose ([3]; 1.5% concentration): 1122 ± 73 mM × 180 min
NEFA ([3]; 0.15% concentration): 0.85 ± 0.06 mmol/L
NEFA ([3]; 0.5% concentration): 0.87 ± 0.04 mmol/L
NEFA ([3]; 1.5% concentration): 0.82 ± 0.06 mmol/L
Insulin ([3]; 0.15% concentration): 3.76 ± 0.72 ng/mL
Insulin ([3]; 0.5% concentration): 4.10 ± 0.57 ng/mL
Insulin ([3]; 1.5% concentration): 4.42 ± 0.87 ng/mL
TAGs ([3]; 0.15% concentration): 1.41 ± 0.11 mmol/L
TAGs ([3]; 0.5% concentration): 1.42 ± 0.08 mmol/L
TAGs ([3]; 1.5% concentration): 1.15 ± 0.08 mmol/L
